According to paper PMC10952572, “Improved PIEZO1 agonism through 4‐benzoic acid modification of Yoda1” (British Journal of Pharmacology, 2023):
pEC50: −log10 of the molar value.

Biological target: T1, hPIEZO1 (Homo sapiens, UniProt Q92508)
T1 construct: expressed in transfected cells
Assay: Automated patch clamp (SyncroPatch 384) on hPIEZO1-TREx cells
Type: cell-based
Settings: for Effect on M-Stim-evoked currents: hPIEZO1-TREx cells, −80 mV; for Cells responding to activation: hPIEZO1-TREx, 10 μM KC157, 10 μM Yoda1, 5 μM KC159
Method: For automated patch clamp, cells were cultured and harvested according to Nanion's standard cell culture protocol (Obergrussberger et al., [2014]). hPIEZO1‐TREx cells were induced to express PIEZO1 by incubation with 0.5 μg·ml^−1 tetracycline 24 h prior to experiments. Whole‐cell patch‐clamp recordings were conducted on HEK‐TREx, hPIEZO1‐TREx and mPIEZO1‐TREx cells according to Nanion's standard procedure for the SyncroPatch 384, using medium resistance (4–5 MΩ) chips (Obergrussberger et al., [2018]). Cells were held at −80 mV for the duration of the experiment. The channel was activated by mechanical forces in the absence and presence of the agonists. To stimulate PIEZO1 channels mechanically (mechanical stimulation [M‐Stim]), we dispensed 20 μl of solution (either reference or agonist) locally to the cell at a pipetting speed of 110 μl·s^−1 in synchrony with a triggered recording of the current response at the holding potential. The internal solution contained 110 mM KF, 10 mM KCl, 10 mM NaCl, 10 mM HEPES and 10 mM EGTA, pH adjusted to 7.2 with KOH, and the external solution contained 140 mM NaCl, 4 mM KCl, 2 mM CaCl2, 1 mM MgCl2, 5 mM glucose, 10 mM HEPES, pH adjusted to 7.4 with NaOH, and 0.1% DMSO to match the DMSO concentration of the compound solutions. For PIEZO1 stimulation, KC159, KC157 or Yoda1 was applied directly onto the cells via a pipette application. One chip of the SyncroPatch 384 is equipped with 384 wells served by 384 robotic pipettes and connected to 384 individual amplifiers, allowing us to test 384 distinct cells in one experiment. We tested the effect of each specified analogue on mPIEZO1‐, hPIEZO1‐ and untransfected HEK‐TREx cells in parallel and in comparison to mechanical and Yoda1 stimulation. To estimate the EC50 values, four concentrations of each agonist were tested per cell line in one chip, with each cell receiving single concentrations, and the concentration–response curve was calculated across the whole chip (384 cells). Only cells with seal resistance >0.3 GΩ, series resistance <20 MΩ and cell capacitance >5 and <40 pF were used for analysis.
DataControl 384 (Nanion Technologies GmbH), Prism 9 (GraphPad) and OriginPro 2020 (OriginLab) were used for all analysis of automated patch‐clamp data. For manual and automated patch‐clamp data, n represents the number of cells recorded from successfully in each experimental condition, sampled from two to six batches of cells or 384‐well chips in automated patch clamp. For manual patch‐clamp experiments, each cell/patch recording (n) is considered as an independent experiment because each was made independently at a separate time, using a separate coverslip of cells and using a separate patch pipette. In some instances, more than one such independent recording was made from the same batch of cultured or transfected cells. These n values are considered as independent. Each cell was studied alone and from a separate coverslip in the case for manual patch clamp. To estimate the EC50 values of the agonists in automated patch‐clamp studies, the peak current in the presence of the agonist was normalised to the peak current in the presence of the reference solution. Single‐point concentration–response curves were fitted with a standard Hill equation to estimate EC50 values. P < 0.05 was deemed significant. For automated patch‐clamp experiments, we included some data for n < 5 (Figure 7a,b). […] Such replicates are a feature of, and a rationale for, this automated technology, which is an innovation for the type of research shown here but already commonly used in the pharmaceutical industry for other ion channel studies to increase throughput and avoid waste from large volumes of independent cell cultures and minimise cost from expensive specially engineered plates. As a general strategy, our study used multiple independent technical approaches to address the same or similar questions. […]

T1 sequence (Q92508 whole entry): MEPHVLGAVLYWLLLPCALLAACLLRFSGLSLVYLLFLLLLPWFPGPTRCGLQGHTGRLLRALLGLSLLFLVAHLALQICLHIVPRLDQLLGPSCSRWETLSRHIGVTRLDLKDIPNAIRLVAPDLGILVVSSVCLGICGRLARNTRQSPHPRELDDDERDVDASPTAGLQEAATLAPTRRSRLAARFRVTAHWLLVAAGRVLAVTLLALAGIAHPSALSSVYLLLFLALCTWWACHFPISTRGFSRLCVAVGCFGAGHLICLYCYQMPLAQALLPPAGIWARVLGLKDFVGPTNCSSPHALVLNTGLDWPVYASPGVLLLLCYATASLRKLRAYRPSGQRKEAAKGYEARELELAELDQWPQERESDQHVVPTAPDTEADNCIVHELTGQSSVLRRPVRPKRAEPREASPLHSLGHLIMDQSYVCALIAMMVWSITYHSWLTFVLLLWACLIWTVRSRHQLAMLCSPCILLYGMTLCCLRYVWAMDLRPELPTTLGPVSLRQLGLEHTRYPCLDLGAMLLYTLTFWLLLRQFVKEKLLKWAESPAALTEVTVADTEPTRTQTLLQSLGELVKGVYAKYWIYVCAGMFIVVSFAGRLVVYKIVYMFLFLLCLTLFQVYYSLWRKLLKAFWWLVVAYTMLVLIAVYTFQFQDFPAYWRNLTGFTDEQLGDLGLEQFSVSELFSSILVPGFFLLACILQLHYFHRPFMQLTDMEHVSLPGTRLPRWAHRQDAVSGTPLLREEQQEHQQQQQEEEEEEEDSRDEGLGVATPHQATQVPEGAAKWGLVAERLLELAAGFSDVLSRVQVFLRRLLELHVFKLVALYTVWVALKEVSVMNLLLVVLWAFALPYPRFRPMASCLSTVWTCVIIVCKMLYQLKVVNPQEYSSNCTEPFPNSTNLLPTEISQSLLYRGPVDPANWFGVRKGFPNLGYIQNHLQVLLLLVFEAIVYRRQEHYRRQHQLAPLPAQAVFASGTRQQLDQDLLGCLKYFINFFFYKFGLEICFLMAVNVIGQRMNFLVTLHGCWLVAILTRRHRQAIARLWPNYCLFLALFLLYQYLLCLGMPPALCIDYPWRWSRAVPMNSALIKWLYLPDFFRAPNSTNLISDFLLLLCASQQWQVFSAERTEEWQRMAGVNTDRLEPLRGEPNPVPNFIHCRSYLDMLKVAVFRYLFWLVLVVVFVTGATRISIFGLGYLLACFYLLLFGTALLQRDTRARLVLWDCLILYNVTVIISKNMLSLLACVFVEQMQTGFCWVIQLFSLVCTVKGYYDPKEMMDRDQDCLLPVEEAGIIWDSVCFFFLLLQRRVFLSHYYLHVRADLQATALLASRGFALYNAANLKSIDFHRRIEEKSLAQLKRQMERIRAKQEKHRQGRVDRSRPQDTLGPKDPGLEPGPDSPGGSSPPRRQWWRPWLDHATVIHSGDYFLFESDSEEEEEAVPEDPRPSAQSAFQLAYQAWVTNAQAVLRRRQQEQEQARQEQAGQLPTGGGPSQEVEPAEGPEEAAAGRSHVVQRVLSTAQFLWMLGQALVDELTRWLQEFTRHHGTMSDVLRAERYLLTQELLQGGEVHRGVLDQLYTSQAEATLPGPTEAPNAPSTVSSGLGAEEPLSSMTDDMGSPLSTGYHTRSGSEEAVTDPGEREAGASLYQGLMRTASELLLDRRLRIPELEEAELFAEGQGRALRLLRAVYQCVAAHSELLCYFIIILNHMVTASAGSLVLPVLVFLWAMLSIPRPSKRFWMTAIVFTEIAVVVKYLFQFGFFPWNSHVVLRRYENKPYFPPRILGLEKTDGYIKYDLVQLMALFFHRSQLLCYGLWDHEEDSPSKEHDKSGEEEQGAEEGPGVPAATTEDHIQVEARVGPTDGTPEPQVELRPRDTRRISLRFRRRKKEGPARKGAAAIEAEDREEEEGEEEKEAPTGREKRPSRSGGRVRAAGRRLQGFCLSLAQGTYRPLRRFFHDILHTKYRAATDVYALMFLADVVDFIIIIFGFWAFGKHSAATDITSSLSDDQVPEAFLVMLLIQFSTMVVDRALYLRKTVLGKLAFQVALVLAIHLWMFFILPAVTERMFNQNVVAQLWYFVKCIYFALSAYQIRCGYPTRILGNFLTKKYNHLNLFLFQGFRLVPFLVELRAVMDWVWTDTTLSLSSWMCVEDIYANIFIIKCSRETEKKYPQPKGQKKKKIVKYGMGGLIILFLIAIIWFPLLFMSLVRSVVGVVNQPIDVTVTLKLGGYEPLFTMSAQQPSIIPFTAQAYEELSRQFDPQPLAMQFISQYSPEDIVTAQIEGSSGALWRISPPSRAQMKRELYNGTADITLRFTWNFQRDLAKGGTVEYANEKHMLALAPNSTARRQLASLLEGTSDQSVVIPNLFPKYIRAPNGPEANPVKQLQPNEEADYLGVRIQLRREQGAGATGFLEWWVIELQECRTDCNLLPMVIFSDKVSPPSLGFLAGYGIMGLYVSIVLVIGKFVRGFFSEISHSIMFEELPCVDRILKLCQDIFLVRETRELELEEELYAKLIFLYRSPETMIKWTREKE

Row | SMILES | Effect on M-Stim-evoked currents (10 μM) | Cells responding to activation | Sustained component of current as % of peak current (10 μM, hPIEZO1 cells, mean ± SD) | pEC50 (hPIEZO1, normalised peak current, maximum response not certain, read-out: EC50 (estimate))
1 | O=C(O)c1ccccc1-c1nnc(SCc2c(Cl)cccc2Cl)s1 [KC157] | mostly fails to evoke responses | largely ineffective | – | –
2 | O=C(O)c1ccc(-c2nnc(SCc3c(Cl)cccc3Cl)s2)cc1 [KC159] | greatly amplifies the currents | more cells to respond compared with Yoda1 | −4 ± 2% | ~5.78
